According to ChEMBL document CHEMBL1201862, “PubChem BioAssay data set” (2004):
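How tested: cells in 96-well plates exposed to compound for 48 hours at five concentrations. Abbreviation: GI50, concentration required for 50% inhibition of growth.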 Calls of active or inactive are those of the source. No stated cut-off is given here; in the data, active = GI50 up to about 1.1 µM and inactive = higher.

Key:
Experiment in all cases: DTP human tumour cell line panel, 48 h
786-0 = test system: 786-0
A498 = test system: A498
A549 = test system: A549
ACHN = test system: ACHN
BT-549 = test system: BT-549
CAKI-1 = test system: CAKI-1
CCRF-CEM = test system: CCRF-CEM
COLO 205 = test system: COLO 205
DU-145 = test system: DU-145
HCC 2998 = test system: HCC 2998
HCT-116 = test system: HCT-116
HCT-15 = test system: HCT-15
HL-60 = test system: HL-60
HOP-92 = test system: HOP-92
HT-29 = test system: HT-29
Hs-578T = test system: Hs-578T
K562 = test system: K562
KM12 = test system: KM12
LOX IMVI = test system: LOX IMVI
M14 = test system: M14
MCF7 = test system: MCF7
MDA-MB-231 = test system: MDA-MB-231
MDA-MB-435 = test system: MDA-MB-435
MDA-N = test system: MDA-N
MOLT-4 = test system: MOLT-4
NCI-H226 = test system: NCI-H226
NCI-H23 = test system: NCI-H23
NCI-H460 = test system: NCI-H460
NCI/ADR-RES = test system: NCI/ADR-RES
OVCAR-3 = test system: OVCAR-3
OVCAR-4 = test system: OVCAR-4
OVCAR-5 = test system: OVCAR-5
OVCAR-8 = test system: OVCAR-8
PC-3 = test system: PC-3
RPMI-8226 = test system: RPMI-8226
RXF 393 = test system: RXF 393
SF-268 = test system: SF-268
SF-295 = test system: SF-295
SF-539 = test system: SF-539
SK-MEL-28 = test system: SK-MEL-28
SK-MEL-2 = test system: SK-MEL-2
SK-MEL-5 = test system: SK-MEL-5
SK-OV-3 = test system: SK-OV-3
SN12C = test system: SN12C
SNB-19 = test system: SNB-19
SNB-75 = test system: SNB-75
SR = test system: SR
SW-620 = test system: SW-620
T47D = test system: T47D
U-251 = test system: U-251
UACC-257 = test system: UACC-257
UACC-62 = test system: UACC-62
UO-31 = test system: UO-31

COC(=O)C(=O)C(C(=O)C(=O)Nc1ccc([N+](=O)[O-])cc1[N+](=O)[O-])c1nc2ccc(Cl)cc2nc1O (stereo not drawn)
GI50 (786-0): > 100 µM (inactive) | GI50 (A498): > 100 µM (inactive) | GI50 (A549): > 100 µM (inactive) | GI50 (ACHN): > 100 µM (inactive) | GI50 (BT-549): > 100 µM (inactive) | GI50 (CAKI-1): 17.5 µM (inactive) | GI50 (CCRF-CEM): > 10 µM (inactive) | GI50 (COLO 205): > 100 µM (inactive) | GI50 (DU-145): > 100 µM (inactive) | GI50 (HCC 2998): > 100 µM (inactive) | GI50 (HCT-116): > 100 µM (inactive) | GI50 (HCT-15): > 100 µM | GI50 (HL-60): > 100 µM (inactive) | GI50 (HOP-92): > 100 µM (inactive) | GI50 (HT-29): > 100 µM (inactive) | GI50 (Hs-578T): 25.1 µM (inactive) | GI50 (K562): > 100 µM (inactive) | GI50 (KM12): > 100 µM (inactive) | GI50 (LOX IMVI): > 100 µM (inactive) | GI50 (M14): > 100 µM (inactive) | GI50 (MCF7): > 100 µM (inactive) | GI50 (MDA-MB-231): 50.2 µM (inactive) | GI50 (MDA-MB-435): > 100 µM (inactive) | GI50 (MDA-N): > 100 µM (inactive) | GI50 (MOLT-4): > 100 µM (inactive) | GI50 (NCI-H226): 78.5 µM (inactive) | GI50 (NCI-H23): > 100 µM (inactive) | GI50 (NCI-H460): > 100 µM (inactive) | GI50 (NCI/ADR-RES): 87.3 µM (inactive) | GI50 (OVCAR-3): > 100 µM (inactive) | GI50 (OVCAR-4): 27.1 µM (inactive) | GI50 (OVCAR-5): > 100 µM (inactive) | GI50 (OVCAR-8): > 100 µM (inactive) | GI50 (PC-3): > 100 µM (inactive) | GI50 (RPMI-8226): > 100 µM (inactive) | GI50 (RXF 393): 65.3 µM (inactive) | GI50 (SF-268): 74.1 µM (inactive) | GI50 (SF-295): > 100 µM (inactive) | GI50 (SF-539): > 100 µM (inactive) | GI50 (SK-MEL-28): > 100 µM (inactive) | GI50 (SK-MEL-2): > 100 µM (inactive) | GI50 (SK-MEL-5): > 100 µM (inactive) | GI50 (SK-OV-3): > 100 µM (inactive) | GI50 (SN12C): > 100 µM (inactive) | GI50 (SNB-19): > 100 µM (inactive) | GI50 (SNB-75): 16.5 µM (inactive) | GI50 (SR): > 100 µM (inactive) | GI50 (SW-620): > 100 µM (inactive) | GI50 (T47D): > 100 µM (inactive) | GI50 (U-251): > 100 µM (inactive) | GI50 (UACC-257): > 100 µM (inactive) | GI50 (UACC-62): > 100 µM (inactive) | GI50 (UO-31): 80.4 µM (inactive)
